In ChEMBL document CHEMBL5584359, “Discovery and Preclinical Profile of ALG-055009, a Potent and Selective Thyroid Hormone Receptor Beta (THR-β) Agonist for the Treatment of MASH” (J Med Chem, 2024):
pEC50, pIC50: −log10 of the molar value. Activity calls are given as the source filed them. The rule behind the calls is not given here.

How the values were obtained:
[1] = Plasma protein binding in Sprague-Dawley rat at 2 uM incubated for 4 hrs by rapid equilibrium dialysis
in vitro [2] = details: rat, cryopreserved hepatocytes
CYP2C9 = CYP2C9 (Homo sapiens, UniProt P11712); experiment: Inhibition of CYP2C9 in human liver microsomes at 10 uM in presence of NADPH relative to control
Chain of CYP2C9 (P11712 whole entry): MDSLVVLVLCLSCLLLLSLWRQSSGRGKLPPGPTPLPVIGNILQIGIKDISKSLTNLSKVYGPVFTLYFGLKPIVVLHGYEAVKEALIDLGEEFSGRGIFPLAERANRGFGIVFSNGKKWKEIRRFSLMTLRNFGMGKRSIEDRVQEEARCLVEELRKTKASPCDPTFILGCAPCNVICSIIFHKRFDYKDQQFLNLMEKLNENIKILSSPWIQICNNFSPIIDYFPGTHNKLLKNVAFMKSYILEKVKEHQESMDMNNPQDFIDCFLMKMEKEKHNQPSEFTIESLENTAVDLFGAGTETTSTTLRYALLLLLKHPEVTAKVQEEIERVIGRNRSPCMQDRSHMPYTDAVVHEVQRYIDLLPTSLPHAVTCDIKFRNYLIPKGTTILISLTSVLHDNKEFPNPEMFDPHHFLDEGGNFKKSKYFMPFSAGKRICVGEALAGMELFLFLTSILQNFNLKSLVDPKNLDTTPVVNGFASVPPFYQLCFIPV

in vitro [3] = details: mouse, cryopreserved hepatocytes
CYP2C8 = target: T1, CYP2C8 (Homo sapiens, UniProt P10632); experiment: Inhibition of CYP2C8 in human liver microsomes at 10 uM in presence of NADPH relative to control
T1 sequence (P10632 whole entry): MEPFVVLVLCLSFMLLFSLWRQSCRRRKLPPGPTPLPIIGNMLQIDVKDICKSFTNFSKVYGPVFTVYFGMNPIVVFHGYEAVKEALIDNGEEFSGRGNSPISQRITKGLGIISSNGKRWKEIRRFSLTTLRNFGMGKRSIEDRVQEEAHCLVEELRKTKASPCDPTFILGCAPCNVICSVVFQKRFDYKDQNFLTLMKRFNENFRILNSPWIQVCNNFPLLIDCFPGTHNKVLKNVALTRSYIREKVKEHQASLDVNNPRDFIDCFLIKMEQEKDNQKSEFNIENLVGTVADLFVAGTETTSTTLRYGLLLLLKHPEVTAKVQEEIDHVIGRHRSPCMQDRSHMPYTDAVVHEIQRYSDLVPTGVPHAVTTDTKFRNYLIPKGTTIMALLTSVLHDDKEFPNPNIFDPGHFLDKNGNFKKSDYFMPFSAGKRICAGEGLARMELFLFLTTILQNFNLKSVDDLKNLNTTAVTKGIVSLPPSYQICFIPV

[4] = Plasma protein binding in human at 2 uM incubated for 4 hrs by rapid equilibrium dialysis
in vitro [5] = details: human, cryopreserved hepatocytes
[6] = Apparent permeability of the compound from apical to basolateral side in human Caco-2 cells incubated for 1 hr
[7] = target: Sodium channel protein type 5 subunit alpha (Homo sapiens, UniProt Q14524); experiment: Inhibition of Nav1.5 (unknown origin)
Chain of Sodium channel protein type 5 subunit alpha (Q14524 whole entry): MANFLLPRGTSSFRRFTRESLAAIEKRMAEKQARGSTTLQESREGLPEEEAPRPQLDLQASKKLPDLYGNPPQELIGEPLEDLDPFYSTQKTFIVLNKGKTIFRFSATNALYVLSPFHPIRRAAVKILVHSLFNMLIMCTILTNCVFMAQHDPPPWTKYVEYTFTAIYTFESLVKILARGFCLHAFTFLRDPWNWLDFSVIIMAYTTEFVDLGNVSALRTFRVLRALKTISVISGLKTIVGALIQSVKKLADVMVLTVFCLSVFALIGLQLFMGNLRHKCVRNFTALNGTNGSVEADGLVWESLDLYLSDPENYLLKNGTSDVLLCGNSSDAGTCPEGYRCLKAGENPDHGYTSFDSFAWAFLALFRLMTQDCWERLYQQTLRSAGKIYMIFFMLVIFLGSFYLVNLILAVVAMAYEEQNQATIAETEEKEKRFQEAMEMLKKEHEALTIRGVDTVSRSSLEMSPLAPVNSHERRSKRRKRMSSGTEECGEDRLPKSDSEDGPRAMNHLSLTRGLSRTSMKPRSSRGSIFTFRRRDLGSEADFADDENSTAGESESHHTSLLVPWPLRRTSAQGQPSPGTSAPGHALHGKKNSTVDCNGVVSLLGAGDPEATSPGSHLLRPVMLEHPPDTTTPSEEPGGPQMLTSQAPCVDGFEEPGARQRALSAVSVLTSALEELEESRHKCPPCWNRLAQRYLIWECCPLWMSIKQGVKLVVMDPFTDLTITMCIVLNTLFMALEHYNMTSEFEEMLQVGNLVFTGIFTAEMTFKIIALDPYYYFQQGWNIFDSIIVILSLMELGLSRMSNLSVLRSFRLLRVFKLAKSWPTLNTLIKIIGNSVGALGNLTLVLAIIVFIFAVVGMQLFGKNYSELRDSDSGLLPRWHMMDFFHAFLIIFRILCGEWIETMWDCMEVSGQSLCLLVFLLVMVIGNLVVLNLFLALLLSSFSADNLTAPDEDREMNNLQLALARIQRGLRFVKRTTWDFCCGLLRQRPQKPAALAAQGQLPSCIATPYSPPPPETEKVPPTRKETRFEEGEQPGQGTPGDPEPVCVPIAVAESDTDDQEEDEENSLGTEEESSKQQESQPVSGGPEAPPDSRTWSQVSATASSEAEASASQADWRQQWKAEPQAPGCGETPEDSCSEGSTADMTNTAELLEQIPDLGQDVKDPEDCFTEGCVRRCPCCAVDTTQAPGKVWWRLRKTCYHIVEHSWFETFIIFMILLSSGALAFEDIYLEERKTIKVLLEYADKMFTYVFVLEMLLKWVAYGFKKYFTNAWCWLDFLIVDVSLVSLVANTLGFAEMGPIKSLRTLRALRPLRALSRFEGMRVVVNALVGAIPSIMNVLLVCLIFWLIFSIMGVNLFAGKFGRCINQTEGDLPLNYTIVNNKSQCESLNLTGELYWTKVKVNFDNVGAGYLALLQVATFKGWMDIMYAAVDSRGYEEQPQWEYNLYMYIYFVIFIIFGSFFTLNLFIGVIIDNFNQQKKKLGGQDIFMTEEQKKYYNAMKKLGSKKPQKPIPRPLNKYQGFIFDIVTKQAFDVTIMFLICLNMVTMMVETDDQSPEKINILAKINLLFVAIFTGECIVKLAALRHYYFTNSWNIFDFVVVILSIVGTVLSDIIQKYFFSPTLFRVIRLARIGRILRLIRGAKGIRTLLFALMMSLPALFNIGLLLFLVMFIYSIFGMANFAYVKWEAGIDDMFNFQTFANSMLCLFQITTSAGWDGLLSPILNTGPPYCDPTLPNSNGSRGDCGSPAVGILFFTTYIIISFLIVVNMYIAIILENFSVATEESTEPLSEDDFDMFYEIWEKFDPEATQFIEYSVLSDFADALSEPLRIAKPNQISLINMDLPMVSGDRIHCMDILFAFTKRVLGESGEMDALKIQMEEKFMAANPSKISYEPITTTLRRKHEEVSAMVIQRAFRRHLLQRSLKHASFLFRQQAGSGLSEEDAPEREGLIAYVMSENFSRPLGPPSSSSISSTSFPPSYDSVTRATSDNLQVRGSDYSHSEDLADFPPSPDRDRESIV

[8] = target: T2, Solute carrier organic anion transporter family member 1B1 (Homo sapiens, UniProt Q9Y6L6); experiment: Inhibition of OATP1B1 (unknown origin) stably transfected in HEK293 cells at 1 to 100 uM; format: cell-based
T2 sequence (Q9Y6L6 whole entry): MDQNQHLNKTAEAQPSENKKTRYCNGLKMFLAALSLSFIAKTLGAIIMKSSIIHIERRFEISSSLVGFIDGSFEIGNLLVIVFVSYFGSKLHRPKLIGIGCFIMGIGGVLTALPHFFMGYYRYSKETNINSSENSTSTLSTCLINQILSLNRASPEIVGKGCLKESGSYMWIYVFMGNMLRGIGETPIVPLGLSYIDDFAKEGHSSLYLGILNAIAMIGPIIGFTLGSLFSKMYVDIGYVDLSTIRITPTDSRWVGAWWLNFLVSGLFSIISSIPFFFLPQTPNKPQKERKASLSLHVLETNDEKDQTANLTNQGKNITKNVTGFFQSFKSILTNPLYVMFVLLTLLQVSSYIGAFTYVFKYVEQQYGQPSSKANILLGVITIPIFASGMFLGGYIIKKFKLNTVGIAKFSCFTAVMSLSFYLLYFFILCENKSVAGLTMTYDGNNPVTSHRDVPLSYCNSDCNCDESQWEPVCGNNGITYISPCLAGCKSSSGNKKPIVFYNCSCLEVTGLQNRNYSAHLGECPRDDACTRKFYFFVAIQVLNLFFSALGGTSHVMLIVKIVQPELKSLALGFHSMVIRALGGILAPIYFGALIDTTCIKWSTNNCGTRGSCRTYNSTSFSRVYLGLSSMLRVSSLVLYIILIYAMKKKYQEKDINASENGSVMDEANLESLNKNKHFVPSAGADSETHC

[9] = target: T3, UDP-glucuronosyltransferase 1A1 (Homo sapiens, UniProt P22309); experiment: Inhibition of human recombinant UGT1A1 in presence of UDPGA cofactor
T3 sequence (P22309 whole entry): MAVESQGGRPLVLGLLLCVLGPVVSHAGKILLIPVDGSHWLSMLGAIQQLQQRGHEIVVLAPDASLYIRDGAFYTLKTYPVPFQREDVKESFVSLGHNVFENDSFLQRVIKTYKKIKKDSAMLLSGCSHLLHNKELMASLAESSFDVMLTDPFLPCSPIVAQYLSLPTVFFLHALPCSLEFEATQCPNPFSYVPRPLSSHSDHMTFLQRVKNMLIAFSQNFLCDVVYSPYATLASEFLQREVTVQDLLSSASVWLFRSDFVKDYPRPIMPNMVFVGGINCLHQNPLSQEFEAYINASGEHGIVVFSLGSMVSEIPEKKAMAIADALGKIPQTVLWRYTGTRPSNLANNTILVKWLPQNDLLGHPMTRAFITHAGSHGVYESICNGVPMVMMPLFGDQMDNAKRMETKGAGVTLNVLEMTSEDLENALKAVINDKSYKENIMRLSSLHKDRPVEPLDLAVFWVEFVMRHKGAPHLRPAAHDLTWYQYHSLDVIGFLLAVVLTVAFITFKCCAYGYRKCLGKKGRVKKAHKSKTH

[10] = target: Voltage-dependent L-type calcium channel subunit alpha-1C (Homo sapiens, UniProt Q13936); experiment: Inhibition of CaV1.2 (unknown origin)
Chain of Voltage-dependent L-type calcium channel subunit alpha-1C (Q13936 whole entry): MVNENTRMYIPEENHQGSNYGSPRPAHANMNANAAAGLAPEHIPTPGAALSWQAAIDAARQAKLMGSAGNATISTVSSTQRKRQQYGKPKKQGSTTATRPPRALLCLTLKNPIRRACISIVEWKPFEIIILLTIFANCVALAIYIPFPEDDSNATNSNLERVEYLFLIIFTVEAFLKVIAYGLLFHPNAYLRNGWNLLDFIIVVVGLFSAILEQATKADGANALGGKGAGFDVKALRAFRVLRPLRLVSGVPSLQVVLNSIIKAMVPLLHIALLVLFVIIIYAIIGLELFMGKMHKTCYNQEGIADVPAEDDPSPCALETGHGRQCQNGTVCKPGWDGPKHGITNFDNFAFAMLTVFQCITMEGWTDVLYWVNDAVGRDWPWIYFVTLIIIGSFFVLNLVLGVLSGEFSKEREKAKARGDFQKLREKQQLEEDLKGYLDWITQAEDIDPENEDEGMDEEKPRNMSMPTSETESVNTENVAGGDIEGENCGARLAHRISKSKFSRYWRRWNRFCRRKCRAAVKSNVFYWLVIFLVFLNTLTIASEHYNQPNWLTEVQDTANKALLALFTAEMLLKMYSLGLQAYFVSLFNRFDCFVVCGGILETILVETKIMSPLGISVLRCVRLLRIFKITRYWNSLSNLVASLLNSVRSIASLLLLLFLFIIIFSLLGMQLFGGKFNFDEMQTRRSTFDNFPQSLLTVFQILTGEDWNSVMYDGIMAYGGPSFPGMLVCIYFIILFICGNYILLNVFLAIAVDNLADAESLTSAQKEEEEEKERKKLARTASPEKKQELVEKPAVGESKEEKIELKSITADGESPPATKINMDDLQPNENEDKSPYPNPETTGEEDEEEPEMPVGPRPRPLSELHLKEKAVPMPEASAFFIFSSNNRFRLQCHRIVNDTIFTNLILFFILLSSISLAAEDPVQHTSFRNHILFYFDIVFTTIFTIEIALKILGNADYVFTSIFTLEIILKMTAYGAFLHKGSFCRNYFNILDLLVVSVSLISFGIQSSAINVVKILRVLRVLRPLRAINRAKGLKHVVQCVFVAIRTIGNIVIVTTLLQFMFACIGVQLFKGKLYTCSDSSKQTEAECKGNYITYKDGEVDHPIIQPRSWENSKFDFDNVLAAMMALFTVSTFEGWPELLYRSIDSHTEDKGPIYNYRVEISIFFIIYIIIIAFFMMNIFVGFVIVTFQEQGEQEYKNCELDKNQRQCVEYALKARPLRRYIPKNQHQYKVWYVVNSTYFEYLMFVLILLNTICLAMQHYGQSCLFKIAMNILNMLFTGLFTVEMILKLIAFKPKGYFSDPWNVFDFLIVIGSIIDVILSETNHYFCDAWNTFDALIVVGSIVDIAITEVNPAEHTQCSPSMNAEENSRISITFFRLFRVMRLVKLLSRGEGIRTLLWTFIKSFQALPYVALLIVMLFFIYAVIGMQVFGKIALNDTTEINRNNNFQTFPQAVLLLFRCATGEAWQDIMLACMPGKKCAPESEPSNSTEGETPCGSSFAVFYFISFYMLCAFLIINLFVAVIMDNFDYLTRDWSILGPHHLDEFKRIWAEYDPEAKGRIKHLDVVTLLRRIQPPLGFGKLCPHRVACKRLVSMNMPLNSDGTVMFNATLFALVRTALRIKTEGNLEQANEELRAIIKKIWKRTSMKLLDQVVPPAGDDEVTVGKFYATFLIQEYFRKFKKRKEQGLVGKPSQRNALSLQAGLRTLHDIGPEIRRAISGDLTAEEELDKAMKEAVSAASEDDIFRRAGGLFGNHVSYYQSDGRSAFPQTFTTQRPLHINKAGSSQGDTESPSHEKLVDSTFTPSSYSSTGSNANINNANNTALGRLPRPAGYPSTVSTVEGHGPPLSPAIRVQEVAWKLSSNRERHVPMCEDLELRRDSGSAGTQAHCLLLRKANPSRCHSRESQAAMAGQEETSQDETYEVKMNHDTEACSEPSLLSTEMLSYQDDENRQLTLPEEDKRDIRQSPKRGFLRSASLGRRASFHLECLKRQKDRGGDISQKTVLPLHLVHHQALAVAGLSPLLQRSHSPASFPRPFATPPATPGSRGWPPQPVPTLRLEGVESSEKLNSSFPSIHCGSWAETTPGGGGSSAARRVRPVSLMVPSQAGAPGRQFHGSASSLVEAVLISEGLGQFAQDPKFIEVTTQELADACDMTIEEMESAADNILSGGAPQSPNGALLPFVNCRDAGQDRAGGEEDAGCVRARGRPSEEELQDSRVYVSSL

Rattus norvegicus [11] = experiment: Antihypercholesterolemic activity against high fat diet-induced Sprague-Dawley rat model assessed as change in total cholesterol level at 1.5 mg/kg, po measured at 1 to 24 hrs post dose; format: functional; details: time 1-24 hrs
[12] = Plasma protein binding in Beagle dog at 2 uM incubated for 4 hrs by rapid equilibrium dialysis
Rattus norvegicus [13] = experiment: Antihypercholesterolemic activity against high fat diet-induced Sprague-Dawley rat model assessed as change in T3 level at 1.5 mg/kg, po measured at 1 to 24 hrs post dose; format: functional; details: time 1-24 hrs
Rattus norvegicus [14] = organism: Rattus norvegicus; experiment: Antihypercholesterolemic activity against high fat diet-induced Sprague-Dawley rat model assessed as minimum effective dose measured after 24 hrs post dose; format: functional; details: read-out: MED
[15] = Drug concentration in Sprague-Dawley rat plasma at 5 mg/kg, po measured for 24 hrs by LC-MS/MS analysis; format: ADME, organism-based
[16] = AUC (0 to 24 hrs) in Sprague-Dawley rat at 1.5 mg/kg, po measured for 24 hrs by LC-MS/MS analysis; format: ADME, organism-based; details: in vivo
[17] = Cmax in Sprague-Dawley rat at 5 mg/kg, po measured for 24 hrs by LC-MS/MS analysis; format: ADME, organism-based; details: in vivo
Rattus norvegicus [18] = experiment: Antihypercholesterolemic activity against high fat diet-induced po dosed Sprague-Dawley rat model assessed as reduction in TC level measured after 24 hrs post dose; format: functional, organism-based; details: dose 0.15-5 mg/kg
in vitro [19] = details: dog, cryopreserved hepatocytes
Rattus norvegicus [20] = experiment: Antihypercholesterolemic activity against high fat diet-induced Sprague-Dawley rat model assessed as change in T4 level at 1.5 mg/kg, po measured at 1 to 24 hrs post dose; format: functional; details: time 1-24 hrs
[21] = Cmax in Sprague-Dawley rat at 1.5 mg/kg, po measured for 24 hrs by LC-MS/MS analysis; format: ADME, organism-based; details: in vivo
[22] = Ratio AUC in mouse liver to plasma; details: other tissue
Rattus norvegicus [23] = experiment: Antihypercholesterolemic activity against high fat diet-induced Sprague-Dawley rat model assessed as change in total cholesterol level at 0.15 mg/kg, po measured at 1 to 24 hrs post dose; format: functional; details: time 1-24 hrs
Rattus norvegicus [24] = experiment: Antihypercholesterolemic activity against high fat diet-induced Sprague-Dawley rat model assessed as change in LDL-C level at 5 mg/kg, po measured at 1 to 24 hrs post dose; format: functional; details: time 1-24 hrs
Rattus norvegicus [25] = experiment: Antihypercholesterolemic activity against high fat diet-induced Sprague-Dawley rat model assessed as change in total cholesterol level at 5 mg/kg, po measured at 1 to 24 hrs post dose; format: functional; details: time 1-24 hrs
[26] = Drug concentration in Sprague-Dawley rat plasma at 1.5 mg/kg, po measured for 24 hrs by LC-MS/MS analysis; format: ADME, organism-based
Rattus norvegicus [27] = experiment: Antihypercholesterolemic activity against high fat diet-induced Sprague-Dawley rat model assessed as change in T3 level at 5 mg/kg, po measured at 1 to 24 hrs post dose; format: functional; details: time 1-24 hrs
[28] = Plasma protein binding in cynomolgus monkey at 2 uM incubated for 4 hrs by rapid equilibrium dialysis
Rattus norvegicus [29] = experiment: Antihypercholesterolemic activity against high fat diet-induced Sprague-Dawley rat model assessed as change in T3 level at 0.15 mg/kg, po measured at 1 to 24 hrs post dose; format: functional; details: time 1-24 hrs
[30] = Effect on CPT1A gene expression in human Huh-7 cells measured for 24 hrs; details: Huh-7, 24 h
Rattus norvegicus [31] = experiment: Antihypercholesterolemic activity against high fat diet-induced Sprague-Dawley rat model assessed as change in T4 level at 0.15 mg/kg, po measured at 1 to 24 hrs post dose; format: functional; details: time 1-24 hrs
Rattus norvegicus [32] = experiment: Antihypercholesterolemic activity against high fat diet-induced Sprague-Dawley rat model assessed as change in LDL-C level at 0.15 mg/kg, po measured at 1 to 24 hrs post dose; format: functional; details: time 1-24 hrs
[33] = Drug concentration in Sprague-Dawley rat liver at 1.5 mg/kg, po measured for 24 hrs by LC-MS/MS analysis; format: ADME, organism-based; details: read-out: Ct
[34] = Drug concentration in Sprague-Dawley rat liver at 5 mg/kg, po measured for 24 hrs by LC-MS/MS analysis; format: ADME, organism-based; details: read-out: Ct
[35] = Ratio AUC in rat liver to plasma; details: other tissue
in vitro [36] = details: cynomolgus monkey, cryopreserved hepatocytes
Rattus norvegicus [37] = experiment: Antihypercholesterolemic activity against high fat diet-induced Sprague-Dawley rat model assessed as change in T4 level at 5 mg/kg, po measured at 1 to 24 hrs post dose; format: functional; details: time 1-24 hrs
Rattus norvegicus [38] = experiment: Antihypercholesterolemic activity against high fat diet-induced Sprague-Dawley rat model assessed as change in LDL-C level at 1.5 mg/kg, po measured at 1 to 24 hrs post dose; format: functional; details: time 1-24 hrs

SMILES: C#Cc1nn(-c2cc(Cl)c(Oc3cc(C(C)C)c(=O)[nH]n3)c(Cl)c2)c(=O)[nH]c1=O
- fraction unbound at 4 h, 2 µM [1]: < 0.002
- half-life at 3 h, 1 µM (in vitro [2]): 1.43 h
- inhibition at 10 µM (CYP2C9): 61%
- half-life at 3 h, 1 µM (in vitro [3]): 1.18 h
- inhibition at 10 µM (CYP2C8): 87%
- fraction unbound at 4 h, 2 µM [4]: 0.01
- half-life at 3 h, 1 µM (in vitro [5]): 1.72 h
- Papp A→B at 1 h ([6]; Caco-2): 0.3 ×10⁻⁶ cm/s

SMILES: CC(C)c1cc(Oc2c(Cl)cc(-n3nc(N)c(=O)[nH]c3=O)cc2Cl)n[nH]c1=O
- pIC50 [7]: < 5.00
- pIC50 [8]: 4.62
- pIC50 [9]: 4.43
- pIC50 [10]: < 5.00

SMILES: CC(C)c1cc(Oc2c(Cl)cc(-n3nc(C#N)c(=O)[nH]c3=O)cc2Cl)n[nH]c1=O [RESMETIROM]
- Activity (Rattus norvegicus [11]): -25.8%
- fraction unbound at 4 h, 2 µM [12]: 0.012
- Activity (Rattus norvegicus [13]): 1.7%
- fraction unbound at 4 h, 2 µM [1]: 0.004
- half-life at 3 h, 1 µM (in vitro [2]): > 6 h
- minimal effective dose (Rattus norvegicus [14]): 0.15 mg/kg
- concentration at 24 h [15]: 217 ng/mL
- AUC(0-t) at 24 h [16]: 9410 ng·h/mL
- Cmax [17]: 2550 ng/mL
- Activity (Rattus norvegicus [18]): Active
- half-life at 3 h, 1 µM (in vitro [19]): > 6 h
- Activity (Rattus norvegicus [20]): -15.6%
- Cmax [21]: 969 ng/mL
- Kp [22]: 6.3
- inhibition at 10 µM (CYP2C9): 49%
- Activity (Rattus norvegicus [23]): 9.5%
- Activity (Rattus norvegicus [24]): -44.2%
- Activity (Rattus norvegicus [25]): -34.5%
- concentration at 24 h [26]: 38.2 ng/mL
- Activity (Rattus norvegicus [27]): -1.9%
- half-life at 3 h, 1 µM (in vitro [3]): > 6 h
- fraction unbound at 4 h, 2 µM [28]: 0.005
- Activity (Rattus norvegicus [29]): -4.6%
- pEC50 [30]: 6.52
- Activity (Rattus norvegicus [31]): -18.4%
- Activity (Rattus norvegicus [32]): -0.8%
- inhibition at 10 µM (CYP2C8): 91%
- concentration at 24 h [33]: 73.6 ng/g
- concentration at 24 h [34]: 613 ng/g
- Kp [35]: 6.8
- half-life at 3 h, 1 µM (in vitro [36]): 1.85 h
- Activity (Rattus norvegicus [37]): -15.7%
- fraction unbound at 4 h, 2 µM [4]: 0.003
- Activity (Rattus norvegicus [38]): -34.8%
- half-life at 3 h, 1 µM (in vitro [5]): 3.22 h
- Papp ([6]; caco-2, 1 h): 0.03 10^-6 cm/s
